The source made the active and inactive calls. Unless noted, the calls are words filed in the database; no cut-off is given here.
Experiments:
[1] = biological target: G-protein coupled receptor 55 (Homo sapiens, UniProt Q9Y2T6); test: GPR55 antagonists, SAR follow-up, counter-screen for GPR35 antagonist project, imaging, image-based (AID 2397); format: functional
[2] = biological target: Delta-type opioid receptor (Homo sapiens, UniProt P41143); test: SAR Analysis of Antagonists of the DOR Receptor using an Image-Based Assay - Set 2. [Related pubchem assays (depositor defined):AID1777, AID1785, AID1786, AID1966, AID2133, AID2136, AID2284, AID2285, AID2357]; format: functional
Sequence of Delta-type opioid receptor (P41143 whole entry): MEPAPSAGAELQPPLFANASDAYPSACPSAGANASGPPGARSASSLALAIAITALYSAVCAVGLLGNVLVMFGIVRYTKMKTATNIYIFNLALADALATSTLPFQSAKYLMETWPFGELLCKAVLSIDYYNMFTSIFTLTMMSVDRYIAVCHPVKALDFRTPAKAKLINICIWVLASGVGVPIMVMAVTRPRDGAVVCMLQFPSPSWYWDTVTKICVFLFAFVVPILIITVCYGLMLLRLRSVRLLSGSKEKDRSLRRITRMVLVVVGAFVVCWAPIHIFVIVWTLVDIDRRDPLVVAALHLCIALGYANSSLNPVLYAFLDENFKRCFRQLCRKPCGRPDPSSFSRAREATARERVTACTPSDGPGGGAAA

[3] = biological target: T1, Kappa-type opioid receptor (Homo sapiens, UniProt P41145); test: SAR analysis of Antagonists of the Kappa Opioid Receptor (KOR) using an Image-Based Assay - Set 2. [Related pubchem assays (depositor defined):AID1777, AID1785, AID1786, AID1966, AID2133, AID2136, AID2284, AID2285, AID2348]; format: functional
T1 sequence (P41145 whole entry): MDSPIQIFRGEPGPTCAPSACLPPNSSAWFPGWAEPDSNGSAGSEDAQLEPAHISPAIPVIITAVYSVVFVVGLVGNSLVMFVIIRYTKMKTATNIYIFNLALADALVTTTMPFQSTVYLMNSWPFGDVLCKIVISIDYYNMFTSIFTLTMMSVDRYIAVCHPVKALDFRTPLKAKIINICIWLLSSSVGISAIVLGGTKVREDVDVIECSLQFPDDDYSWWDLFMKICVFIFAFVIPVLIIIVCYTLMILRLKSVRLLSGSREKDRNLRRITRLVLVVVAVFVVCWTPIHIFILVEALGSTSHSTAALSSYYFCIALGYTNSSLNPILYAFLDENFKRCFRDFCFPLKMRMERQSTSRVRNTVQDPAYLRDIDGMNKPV

[4] = biological target: T1, Kappa-type opioid receptor; test: SAR analysis of small molecule agonists of the kappa opioid receptor via a luminescent beta-arrestin assay - Set 2. [Related pubchem assays (depositor defined):AID1777, AID1785, AID1786, AID1966, AID2133, AID2136, AID2284, AID449737]; format: functional
Tumor necrosis factor = Tumor necrosis factor (Homo sapiens, UniProt P01375); test: TNFa-triggered NF-kB activation inhibitors, SAR follow-up, cell-based, set 3 (AID 2801); format: functional
Sequence of Tumor necrosis factor (P01375 whole entry): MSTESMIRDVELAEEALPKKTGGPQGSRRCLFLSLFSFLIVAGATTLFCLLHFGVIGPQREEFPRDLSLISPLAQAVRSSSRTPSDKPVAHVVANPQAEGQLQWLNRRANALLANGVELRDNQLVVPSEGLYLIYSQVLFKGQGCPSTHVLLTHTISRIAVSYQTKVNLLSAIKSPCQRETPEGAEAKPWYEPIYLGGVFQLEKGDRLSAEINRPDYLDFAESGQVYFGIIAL

HEK293 = test: SAR analysis of compounds that are cytotoxic to HEK293 - Set 3. [Related pubchem assays (depositor defined):AID1575, AID1578, AID1848, AID1849, AID2001, AID2333, AID2334, AID2335, AID2337, AID2469]; format: functional, cell-based; details: Homo sapiens
[5] = biological target: Nucleotide-binding oligomerization domain-containing protein 2 (Homo sapiens, UniProt Q9HC29); test: NOD2 signaling inhibitors, analog potency, SAR follow-up, cell-based, set 3 (AID 2799); format: functional
Sequence of Nucleotide-binding oligomerization domain-containing protein 2 (Q9HC29 whole entry, the tested form may be a part): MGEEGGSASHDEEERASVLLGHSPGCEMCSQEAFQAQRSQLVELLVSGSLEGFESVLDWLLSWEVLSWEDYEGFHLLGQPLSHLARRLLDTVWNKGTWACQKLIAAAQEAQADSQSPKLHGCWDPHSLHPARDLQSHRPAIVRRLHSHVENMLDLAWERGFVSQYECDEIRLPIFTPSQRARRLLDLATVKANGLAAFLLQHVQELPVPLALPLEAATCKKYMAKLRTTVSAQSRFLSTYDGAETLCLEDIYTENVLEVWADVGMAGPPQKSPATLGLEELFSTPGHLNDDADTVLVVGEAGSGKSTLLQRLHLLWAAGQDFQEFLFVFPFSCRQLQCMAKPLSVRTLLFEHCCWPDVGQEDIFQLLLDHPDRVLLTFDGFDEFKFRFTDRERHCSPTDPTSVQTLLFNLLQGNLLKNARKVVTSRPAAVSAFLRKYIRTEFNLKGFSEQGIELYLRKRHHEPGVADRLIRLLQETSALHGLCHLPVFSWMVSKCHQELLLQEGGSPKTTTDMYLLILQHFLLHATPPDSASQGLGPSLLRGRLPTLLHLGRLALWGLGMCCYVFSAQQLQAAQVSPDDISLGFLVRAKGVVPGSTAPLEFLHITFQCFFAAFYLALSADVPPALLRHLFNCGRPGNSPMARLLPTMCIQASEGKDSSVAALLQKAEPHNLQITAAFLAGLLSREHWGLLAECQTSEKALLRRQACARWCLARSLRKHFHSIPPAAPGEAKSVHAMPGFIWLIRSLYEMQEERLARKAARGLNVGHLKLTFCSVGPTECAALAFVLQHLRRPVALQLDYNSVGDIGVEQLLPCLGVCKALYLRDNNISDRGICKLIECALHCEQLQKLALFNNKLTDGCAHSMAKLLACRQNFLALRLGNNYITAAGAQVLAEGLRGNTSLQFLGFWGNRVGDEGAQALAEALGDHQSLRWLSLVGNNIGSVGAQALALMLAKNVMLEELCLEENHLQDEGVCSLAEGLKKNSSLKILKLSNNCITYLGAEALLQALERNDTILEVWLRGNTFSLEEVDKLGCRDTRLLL

[6] = biological target: T2, Nucleotide-binding oligomerization domain-containing protein 1 (Homo sapiens, UniProt Q9Y239); test: SAR analysis of compounds that inhibit NOD1 - Set 3. [Related pubchem assays (depositor defined):AID1566, AID1575, AID1578, AID1849, AID1852, AID2333, AID2335, AID2466]; format: functional
T2 sequence (Q9Y239 whole entry): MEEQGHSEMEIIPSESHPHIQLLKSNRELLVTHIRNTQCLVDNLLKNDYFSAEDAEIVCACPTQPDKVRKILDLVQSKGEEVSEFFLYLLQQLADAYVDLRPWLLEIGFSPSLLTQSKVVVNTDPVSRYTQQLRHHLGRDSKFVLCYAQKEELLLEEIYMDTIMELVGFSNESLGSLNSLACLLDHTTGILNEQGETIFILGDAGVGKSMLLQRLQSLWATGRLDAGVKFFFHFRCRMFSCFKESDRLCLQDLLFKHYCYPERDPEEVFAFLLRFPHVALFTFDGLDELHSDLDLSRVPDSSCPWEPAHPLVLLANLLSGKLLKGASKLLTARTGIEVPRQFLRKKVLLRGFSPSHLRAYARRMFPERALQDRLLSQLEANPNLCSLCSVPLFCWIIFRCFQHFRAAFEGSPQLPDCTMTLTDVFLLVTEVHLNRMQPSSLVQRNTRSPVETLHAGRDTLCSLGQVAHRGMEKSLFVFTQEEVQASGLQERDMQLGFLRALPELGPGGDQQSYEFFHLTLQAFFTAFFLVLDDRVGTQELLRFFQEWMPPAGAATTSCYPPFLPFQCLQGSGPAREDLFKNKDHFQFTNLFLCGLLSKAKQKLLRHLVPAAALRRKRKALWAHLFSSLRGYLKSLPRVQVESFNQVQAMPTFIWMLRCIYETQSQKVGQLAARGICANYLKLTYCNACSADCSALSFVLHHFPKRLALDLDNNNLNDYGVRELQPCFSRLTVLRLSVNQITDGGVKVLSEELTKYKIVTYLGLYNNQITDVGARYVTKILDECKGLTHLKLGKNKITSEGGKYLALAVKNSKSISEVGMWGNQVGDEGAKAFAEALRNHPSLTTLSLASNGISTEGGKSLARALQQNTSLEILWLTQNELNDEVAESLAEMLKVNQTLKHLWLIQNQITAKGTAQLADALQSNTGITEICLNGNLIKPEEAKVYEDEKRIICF

Fatty acid synthase [7] = biological target: T3, Fatty acid synthase (Homo sapiens, UniProt P49327); test: FAS thioesterase domain inhibitors, dose response, biochemical, endpoint fluorescence intensity, uHTS hits (AID 624327); format: functional;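 further: fluorescence from hydrolysis of an O-methyl fluorescein acyl ester substrate by the enzyme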
T3 sequence (P49327 whole entry, the tested form may be a part): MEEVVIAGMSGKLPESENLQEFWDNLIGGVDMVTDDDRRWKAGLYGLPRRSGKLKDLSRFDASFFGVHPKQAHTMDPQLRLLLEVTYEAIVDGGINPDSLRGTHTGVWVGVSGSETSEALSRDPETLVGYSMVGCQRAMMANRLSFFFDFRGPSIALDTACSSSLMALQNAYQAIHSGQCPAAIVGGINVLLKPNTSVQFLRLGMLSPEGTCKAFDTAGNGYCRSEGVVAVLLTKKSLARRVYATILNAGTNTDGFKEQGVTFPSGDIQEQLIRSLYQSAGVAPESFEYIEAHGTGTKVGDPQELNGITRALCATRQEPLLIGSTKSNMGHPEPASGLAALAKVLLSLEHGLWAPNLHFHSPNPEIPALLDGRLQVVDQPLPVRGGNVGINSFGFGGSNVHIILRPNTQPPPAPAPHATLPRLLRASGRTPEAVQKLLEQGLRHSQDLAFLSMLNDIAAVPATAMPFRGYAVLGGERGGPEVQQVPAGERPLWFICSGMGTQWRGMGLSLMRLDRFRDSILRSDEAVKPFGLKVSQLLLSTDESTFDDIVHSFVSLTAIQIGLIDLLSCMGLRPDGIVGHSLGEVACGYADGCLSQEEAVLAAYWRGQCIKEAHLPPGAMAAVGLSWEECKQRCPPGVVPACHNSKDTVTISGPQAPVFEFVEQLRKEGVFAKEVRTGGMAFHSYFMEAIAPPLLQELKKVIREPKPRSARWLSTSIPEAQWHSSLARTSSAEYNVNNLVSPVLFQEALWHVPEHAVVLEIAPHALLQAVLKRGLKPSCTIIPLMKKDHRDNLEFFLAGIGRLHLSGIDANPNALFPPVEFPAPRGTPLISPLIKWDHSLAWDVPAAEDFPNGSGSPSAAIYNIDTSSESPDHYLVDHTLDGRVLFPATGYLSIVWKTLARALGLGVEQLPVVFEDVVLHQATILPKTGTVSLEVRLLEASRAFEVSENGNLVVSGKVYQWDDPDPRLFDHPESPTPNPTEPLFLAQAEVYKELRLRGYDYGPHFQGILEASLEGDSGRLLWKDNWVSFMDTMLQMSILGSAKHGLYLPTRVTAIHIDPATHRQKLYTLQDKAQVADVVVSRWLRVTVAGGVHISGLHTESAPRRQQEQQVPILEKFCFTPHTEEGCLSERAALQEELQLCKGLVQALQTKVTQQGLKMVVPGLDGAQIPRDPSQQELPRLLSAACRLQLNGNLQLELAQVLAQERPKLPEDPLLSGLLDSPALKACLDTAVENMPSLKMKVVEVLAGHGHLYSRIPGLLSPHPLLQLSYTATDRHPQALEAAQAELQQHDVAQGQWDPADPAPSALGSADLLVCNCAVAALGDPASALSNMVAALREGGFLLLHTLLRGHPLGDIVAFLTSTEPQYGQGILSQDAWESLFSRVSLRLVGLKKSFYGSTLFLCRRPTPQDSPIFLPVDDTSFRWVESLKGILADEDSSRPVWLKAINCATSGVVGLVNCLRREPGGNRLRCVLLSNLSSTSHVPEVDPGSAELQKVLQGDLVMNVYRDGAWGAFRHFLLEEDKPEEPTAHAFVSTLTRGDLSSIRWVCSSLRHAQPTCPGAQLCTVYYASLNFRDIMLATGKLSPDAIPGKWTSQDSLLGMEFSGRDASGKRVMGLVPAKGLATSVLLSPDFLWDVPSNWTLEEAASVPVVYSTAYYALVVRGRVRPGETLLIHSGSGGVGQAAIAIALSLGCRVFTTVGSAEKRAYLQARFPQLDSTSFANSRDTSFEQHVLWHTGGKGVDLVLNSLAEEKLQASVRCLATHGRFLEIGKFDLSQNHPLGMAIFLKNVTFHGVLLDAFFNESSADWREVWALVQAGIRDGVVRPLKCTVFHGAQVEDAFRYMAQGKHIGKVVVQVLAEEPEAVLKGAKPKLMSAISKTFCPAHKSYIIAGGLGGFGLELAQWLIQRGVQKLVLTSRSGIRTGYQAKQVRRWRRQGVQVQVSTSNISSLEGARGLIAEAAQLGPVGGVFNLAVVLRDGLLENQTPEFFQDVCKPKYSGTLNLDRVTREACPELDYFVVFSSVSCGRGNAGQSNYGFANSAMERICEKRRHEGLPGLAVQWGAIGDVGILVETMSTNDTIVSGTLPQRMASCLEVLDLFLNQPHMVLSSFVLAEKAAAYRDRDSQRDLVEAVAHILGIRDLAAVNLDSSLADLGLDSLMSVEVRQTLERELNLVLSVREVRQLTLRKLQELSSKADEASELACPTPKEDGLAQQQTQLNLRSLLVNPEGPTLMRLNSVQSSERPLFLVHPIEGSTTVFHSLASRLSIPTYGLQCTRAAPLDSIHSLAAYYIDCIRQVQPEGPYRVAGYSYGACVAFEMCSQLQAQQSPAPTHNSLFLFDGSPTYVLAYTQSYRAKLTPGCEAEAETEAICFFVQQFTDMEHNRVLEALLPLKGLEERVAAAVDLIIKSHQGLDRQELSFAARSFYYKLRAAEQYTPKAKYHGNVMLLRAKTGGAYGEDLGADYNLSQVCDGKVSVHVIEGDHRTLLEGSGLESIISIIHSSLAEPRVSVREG

Fatty acid synthase [8] = biological target: T3, Fatty acid synthase; test: FAS thioesterase domain inhibitors, dose response, biochemical, kinetic fluorescence intensity (AID 624326); format: functional;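 further: rate of fluorescence rise from hydrolysis of a fluorogenic O-methyl fluorescein ester substrate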
Cytochrome P450 2D6 = Cytochrome P450 2D6 (Homo sapiens, UniProt P10635);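 further: CYP2D6 member of a cytochrome P450 panel assay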
Sequence of Cytochrome P450 2D6 (P10635 whole entry): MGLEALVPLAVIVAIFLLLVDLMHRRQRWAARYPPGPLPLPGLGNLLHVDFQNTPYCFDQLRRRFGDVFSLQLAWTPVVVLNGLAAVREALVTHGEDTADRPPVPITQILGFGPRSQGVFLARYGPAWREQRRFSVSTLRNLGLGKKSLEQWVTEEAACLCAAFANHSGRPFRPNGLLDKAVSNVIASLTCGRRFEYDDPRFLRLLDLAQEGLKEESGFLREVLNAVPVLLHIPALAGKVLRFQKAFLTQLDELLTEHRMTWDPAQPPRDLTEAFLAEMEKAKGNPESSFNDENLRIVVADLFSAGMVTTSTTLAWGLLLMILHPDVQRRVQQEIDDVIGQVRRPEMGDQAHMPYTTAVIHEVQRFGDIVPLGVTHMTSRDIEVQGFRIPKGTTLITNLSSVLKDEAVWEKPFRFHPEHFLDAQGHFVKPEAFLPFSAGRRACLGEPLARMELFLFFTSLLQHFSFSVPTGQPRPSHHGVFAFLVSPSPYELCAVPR

`Cc1c(C(=O)Nc2ccc3c(c2)OCCO3)sc2ncnc(N3CCCCC3C)c12` (stereo unspecified) was tested, and the IC50 [1] was 4.95 µM (active).

For `CC[C@@](C)(C(=O)Nc1ccc(Br)cc1)N(Cc1ccco1)C(=O)c1ccccn1`, the IC50 [2] was > 32 µM (inactive), the IC50 [3] was > 32 µM (inactive) and the EC50 [4] was 0.0523 µM (active).

For `CCCCn1c(SCCCc2ccccc2)nc2c1c(=O)[nH]c(=O)n2C`, the IC50 (Tumor necrosis factor) was 17.7 µM (active), the IC50 (HEK293) was > 20 µM (inactive) and the IC50 [5] was 11.9 µM (active). The IC50 [6] was > 20 µM (inactive).

With `CC(C)(C)c1ccc(OC(=O)Nc2ccc(O)c(C(=O)O)c2)cc1` the IC50 (Fatty acid synthase [7]) was 9.66 µM (active), the IC50 (Fatty acid synthase [8]) was 11.7 µM (active) and the AC50 (Cytochrome P450 2D6) was “inconclusive”.

— ChEMBL document CHEMBL1201862, “PubChem BioAssay data set” (2004)
